Like-named read-outs stand apart in the source and are kept apart here.
What was measured:
[1] = system: MiaPaca-2 xenograft tumor; assay: MiaPaca2 human pancreatic tumor xenograft in nude mice, subcutaneous treatment; type: in vivo, mouse
Description: The test was carried out comparing the anti-tumor activity of cortexolone 17α-benzoate at two different dosages (8.0 mg/kg, corresponding approximately at 230 μM, and 40 mg/kg, corresponding approximately at 1150 μM), versus the vehicle (i.e. 0.4% (v/v) tween 80 and 0.5% (w/v) carboxymethylcellulose in normal saline) and versus the comparator Cyproterone Acetate at two different dosages (7.4 mg/kg and 37 mg/kg).
1×10^6 MiaPaca-2 cells suspended in matrigel were subcutaneously injected into 6 week old athymic nude mice.
The treatment with the tested compounds, with the vehicle and with the comparative compound, was initiated after the tumor volume has reached 50 mm^3 after transplantation. All compounds were injected 100 μL/mouse subcutaneously of low dose solution (approximately 230 μM) or 100 μL/mouse of high dose solution (approximately 1150 μM) of cortexolone 17α-benzoate, vehicle and cyproterone acetate, respectively. Compounds and controls were administered subcutaneously daily for 28 days.
Tumors were measured every 4 days with a digital caliper.
The results are plotted in FIG. 1 as average change in tumor volume relative to the start of treatment. Tumor volume was calculated according to the formula 0.5236(r1)^2(r2) where r1<r2.
The test was carried out comparing the anti-tumor activity of cortexolone 17α-valerate-21-propionate (CB-03-10) at two different dosages (approximately 8.6 mg/kg and 43 mg/kg) versus the vehicle (i.e. 0.4% (v/v) tween 80 and 0.5% (w/v) carboxymethylcellulose in normal saline) and versus the comparator Cyproterone Acetate at two different dosages (7.4 mg/kg and 37 mg/kg).
The treatment with the tested compound, with the vehicle and with the comparative compound was initiated after the tumor has reached a volume of 50 mm^3 after implantation, injecting subcutaneously 100 μL/mouse of low dose solution (approximately 230 μM) or 100 μL/mouse of high dose solution (approximately 1150 μM) of cortexolone 17α-valerate-21-propionate (CB-03-10), vehicle and cyproterone acetate, respectively. Compounds and controls were administered subcutaneously daily for 28 days.
The results are plotted in FIG. 2 as average change in tumor volume relative to the start of treatment. Tumor volume was calculated according to the formula 0.5236(r1)^2(r2) where r1<r2.
CPA a well-known anti-androgen was used as control. Briefly 1×10^6 MiaPaca2 cells suspended in matrigel were subcutaneously (SC) injected into 6 week old male athymic nude mice. Tumors were measured every 4 days with a digital caliper. Tumor volume was calculated according to the formula: 0.5236(r1) 2(r2) where r1<r2. Treatment with CB-03-10 and controls compounds was initiated after the tumor had reached 50 mm^3. Compounds diluted in DMSO/2-hydroxypropyl b-cyclodextrin (vehicle) were injected subcutaneously (SC) daily (100 μL/mouse) at the concentration of 40 mg/Kg daily for 28 consecutive days.

[2] = system: MiaPaca2 (AR low) pancreatic cancer cells; assay: ATP-dependent proliferation/viability assay, MiaPaca2; type: cell-based; settings: Homo sapiens
Description: (§1) The experimental method consisted of: • 1. […] After 24 hours, 10 nM DHT (dihydrotestosterone) with or without anti-androgen compounds, or DMSO vehicle (negative control) was added to the cultures. • 3.
(§2) Each compounds was titrated from 3 uM to 200 uM.

[3] = system: resting PBMC (quiescent, non-dividing cells); assay: IC50 on resting PBMC (intrinsic toxicity); type: cell-based; settings: Homo sapiens
Description: (§4) The IC50 in PBMC were tested in 2 different activation status: • stimulated—actively dividing cells • resting—quiescent, non-dividing cells
(§5) IC50 of the compounds was determined on fresh cells isolated from human blood (PBMC).

[4] = system: Panc1 (AR+) pancreatic cancer cells; assay: ATP-dependent proliferation/viability assay, Panc1; type: cell-based; settings: Homo sapiens
Description: as §1, §2

MCF7 breast cancer cells = assay: In vitro proliferation / cytotoxic assay, MCF7; type: cell-based; settings: Homo sapiens
Description: After 72 hours incubation cell were harvested, lysed and viability determined using the cell titer glow assay for viability.

[5] = system: stimulated PBMC (actively dividing cells); assay: IC50 on stimulated PBMC (intrinsic toxicity); type: cell-based; settings: Homo sapiens
Description: as §4, §5

[6] = system: PC3 (AR−) prostate cancer cells; assay: ATP-dependent proliferation/viability assay, PC3; type: cell-based; settings: Homo sapiens
[7] = system: LNCaP (AR+) prostate cancer cells; assay: ATP-dependent proliferation/viability assay, LNCaP; type: cell-based; settings: Homo sapiens
Description: (§3) The experiment was performed to test and to define the antitumor activity in vitro of cortexolone 17α-benzoate on LNCaP (AR^+) and PC3 (AR^−), representative of Prostatic cancer cell lines with Androgen Receptor (AR) positive or negative expression, respectively. The experimental method consisted of: • 1. […] After 24 hours, 10 nM DHT (dihydrotestosterone) with or without anti-androgen compounds, or DMSO vehicle (negative control) was added to the cultures. • 3.
as §3, with “define” for “define the”, “17α-valerate-21-propionate (CB-03-10)” for “17α-benzoate”, “AR” for “Androgen Receptor (AR)”
as §2

[8] = system: PC3 (AR−) prostate cancer cells; assay: ATP-dependent proliferation/viability assay, PC3; type: cell-based; settings: Homo sapiens, 72 h, 3 days
Description: as §3
as §3, with “define” for “define the”, “17α-valerate-21-propionate (CB-03-10)” for “17α-benzoate”, “AR” for “Androgen Receptor (AR)”
as §2

[9] = system: Caspase 8, 9 and 3/7 in MiaPaca2 cells; assay: Caspase activity in MiaPaca2 cells; type: cell-based, human; settings: 8, 24, 48 hours
Description: From previous studies was determined that CB-03-10 induces apoptosis using Annexin V staining in MiaPaca2 cells. To better analyze the phenomenon the enzymatic activity of Caspase 8 (initiator caspase for Extrinsic Pathway) and Caspase 9 (initiator caspase for Intrinsic Pathway) and of Caspases 3 and 7 (effector caspases) were measured.
After 24 hours test compounds were added to cells, Gemcitabine (a known pancreatic cancer chemotherapeutic agent) and DMSO were used as positive and negative control, respectively. After 8, 24, & 48 hours incubation with test compounds, cells were lysed in buffer containing the caspase 3/7 or 8 or 9 substrate and a stable luciferase in proprietary buffers. The lysates were transferred to white opaque plates before measuring luminescence in a Tecan Safire instrument. Parallel plates treated identically, were used to determine viable cells. All caspase activities were corrected for the number of viable cells.

HT29 colon cancer cells = assay: In vitro proliferation, HT29 (cancer cell panel); type: cell-based; settings: Homo sapiens, HT-29, HT29
Description: as §2

[10] = In vivo pharmacokinetics in mouse plasma; settings: mouse, in vivo, 40 mg/kg
Description: The pharmacokinetic of CB-03-10 was evaluated in plasma of mice after intravenous (IV), subcutaneous (SC) and oral administration (PO).
Mice (3 per group) were administered with the following doses, blood was collected at the indicated times. Plasma samples were analyzed by HPLC-MS/MS.

[11] = MIA PaCa-2, 72 h, MiaPaca2, Tables I and II, unit inferred, titrated from 3 uM to 200 uM, 3 days, read-out: IC50
[12] = MIA PaCa-2, MiaPaca2, Table IV, read-out: In vitro proliferation IC50 (micro Molar)
[13] = PANC-1, 72 h, Panc1, Tables I and II, unit inferred, titrated from 3 uM to 200 uM, 3 days, read-out: IC50
[14] = PANC-1, Panc1, Table IV, read-out: In vitro proliferation IC50 (micro Molar)
[15] = MCF7, Table IV, read-out: In vitro proliferation IC50 (micro Molar)
[16] = PBMC STIMULATED, Table IV, read-out: In vitro proliferation IC50 (micro Molar)
[17] = Table IV, read-out: In vitro proliferation IC50 (micro Molar)
[18] = 72 h, Tables I and II, unit inferred, compounds titrated from 3 uM to 200 uM, 3 days, read-out: IC50
[19] = Tables I and II, unit inferred, titrated from 3 uM to 200 uM
[20] = Table III, read-out: in vitro proliferation IC50 (μ/M)

C[C@]12CCC(=O)C=C1CC[C@@H]1[C@@H]2CC[C@@]2(C)[C@H]1CC[C@]2(OC(=O)c1ccccc1)C(=O)CO [CB-03-06, cortexolone 17α-benzoate]
pancreatic tumor size increase relative to the start of treatment ([1]; Examples 5 and 6, SC daily for 28 days, test compounds at high dose (approximately 1150 μM, 100 μL/mouse), Cyproterone Acetate treatment groups 7.4 and 37 mg/kg): less than 5 fold

CC(=O)O[C@]1(C(C)=O)CC[C@H]2[C@@H]3C=C(Cl)C4=CC(=O)[C@@H]5C[C@@H]5[C@]4(C)[C@H]3CC[C@@]21C [Cyproterone Acetate, Cyproterone acetate, reference compound]
IC50 ([2]; MIA PaCa-2, 72 h, MiaPaca2, 10 nM DHT, 3 days, Examples 3-4, Experiment 1, sigmoidal dose-response curve fit, read-out: IC50): 46 µM
IC50 ([2]; MIA PaCa-2, 72 h, MiaPaca2, 10 nM DHT, 3 days, Examples 3-4, Experiment 2, pooled experiments, least-squares fit, read-out: IC50): 39 µM
IC50 [2, 11]: 39 µM
IC50 ([2]; MIA PaCa-2, MiaPaca2, Example 7, Experiment 1, read-out: IC50): 39 µM
IC50 ([2]; MIA PaCa-2, MiaPaca2, Example 7, Experiment 2, read-out: IC50): 39 µM
IC50 [2, 12]: 39 µM
pancreatic tumor size increase relative to the initial size, during the treatment period ([1]; Example 22, 40 mg/Kg SC daily for 28 consecutive days): 12 fold
IC50 ([3]; resting PBMC, Example 7, Experiment 1, read-out: IC50 (microM) on Resting PBMC): 18 µM
IC50 ([3]; resting PBMC, Example 7, Experiment 2, read-out: IC50 (microM) on Resting PBMC): 84 µM
IC50 ([4]; PANC-1, 72 h, Panc1, 10 nM DHT, 3 days, Examples 3-4, Experiment 1, sigmoidal dose-response curve fit, read-out: IC50): 54 µM
IC50 ([4]; PANC-1, 72 h, Panc1, 10 nM DHT, 3 days, Examples 3-4, Experiment 2, pooled experiments, least-squares fit, read-out: IC50): 46 µM
IC50 [4, 13]: 46 µM
IC50 ([4]; PANC-1, Panc1, Example 7, Experiment 1, read-out: IC50): 52 µM
IC50 ([4]; PANC-1, Panc1, Example 7, Experiment 2, read-out: IC50): 46 µM
IC50 [4, 14]: 46 µM
IC50 (MCF7 breast cancer cells; [15]): 64 µM
IC50 [5, 16]: 62 µM
IC50 ([5]; stimulated PBMC, Example 7, Experiment 1, read-out: IC50 (microM) on Stimulated PBMC): 63 µM
IC50 ([5]; stimulated PBMC, Example 7, Experiment 2, read-out: IC50 (microM) on Stimulated PBMC): 62 µM
IC50 [6, 17]: 90 µM
IC50 ([7]; 72 h, 10 nM DHT, 3 days, Examples 1-2, Experiment 1 (sigmoidal dose response fit), read-out: IC50): 29 µM
IC50 ([7]; 72 h, 10 nM DHT, 3 days, Examples 1-2, Experiment 2 (nonlinear regression least squares fit), read-out: IC50): 22 µM
IC50 [7, 18]: 22 µM
IC50 [7, 17]: 22 µM
IC50 ([8]; 10 nM DHT, Examples 1-2, Experiment 1): 98 µM
IC50 ([8]; 10 nM DHT, Examples 1-2, Experiment 2): 90 µM
IC50 [8, 19]: 90 µM

Nc1ccn([C@@H]2O[C@H](CO)[C@@H](O)C2(F)F)c(=O)n1 [Gemcitabine, reference compound]
Caspase 3/7 induction [9]: not seen until the 48 hours mark

CCCCC(=O)O[C@]1(C(=O)CO)CC[C@H]2[C@@H]3CCC4=CC(=O)CC[C@]4(C)[C@H]3CC[C@@]21C [CB-03-05, cortexolone 17α-valerate]
Caspase 3/7 induction [9]: does not show a good profile for caspase activation
IC50 (HT29 colon cancer cells; Table III, read-out: in vitro proliferation IC50 (μ/M) (converted)): 30 µM
IC50 (HT29 colon cancer cells; [17]): 30 µM
IC50 [2, 11]: 59 µM
IC50 ([2]; MIA PaCa-2, MiaPaca2, Table III, read-out: in vitro proliferation IC50 (μ/M)): 59 µM
IC50 [2, 12]: 59 µM
IC50 ([3]; PBMC RESTING, Table III, read-out: in vitro proliferation IC50 (μ/M)): 120 µM
IC50 [4, 13]: 74 µM
IC50 ([4]; PANC-1, Panc1, Table III, read-out: in vitro proliferation IC50 (μ/M)): 74 µM
IC50 [4, 14]: 74 µM
IC50 (MCF7 breast cancer cells; MCF7 (ER+PR+GR+/−), 72 hours, Table VI, unit inferred, read-out: IC50 on breast cancer cells): 50 µM
IC50 (MCF7 breast cancer cells; MCF7, Table III, read-out: in vitro proliferation IC50 (μ/M)): 50 µM
IC50 (MCF7 breast cancer cells; [15]): 50 µM
IC50 ([5]; PBMC STIMULATED, Table III, read-out: in vitro proliferation IC50 (μ/M)): 130 µM
IC50 [5, 16]: 130 µM
IC50 [6, 20]: 170 µM
IC50 [6, 17]: 170 µM
body exposure (metabolite after CB-03-10 dosing) ([10]; po): 47 h/ng/mL
body exposure (metabolite after CB-03-10 dosing) ([10]; sc): 189 h/ng/mL
IC50 [7, 18]: 32 µM
IC50 [7, 20]: 32 µM
IC50 [7, 17]: 32 µM
IC50 ([7]; general conclusion text, read-out: IC50 in LNCaP prostate cancer cells): 32 µM
IC50 [8, 19]: 170 µM

CCCC(=O)OC1(C(=O)CO)CCC2C3CCC4=CC(=O)CC[C@]4(C)C3=CC[C@@]21C (single isomer, unassigned) [CB-03-04]
IC50 (HT29 colon cancer cells; [17]): 51 µM
IC50 [2, 11]: 160 µM
IC50 [2, 12]: 160 µM
IC50 [4, 13]: 340 µM
IC50 [4, 14]: 340 µM
IC50 (MCF7 breast cancer cells; [15]): 88 µM
IC50 [5, 16]: 360 µM

CCC(=O)O[C@]1(C(=O)CO)CC[C@H]2[C@@H]3CCC4=CC(=O)CC[C@]4(C)[C@H]3CC[C@@]21C [CB-03-01]
IC50 [2, 11]: 110 µM
IC50 [2, 12]: 110 µM
IC50 [4, 13]: 490 µM
IC50 [4, 14]: 490 µM
IC50 (MCF7 breast cancer cells; [15]): 121 µM
IC50 [5, 16]: 0.1 µM
IC50 [6, 17]: 190 µM
IC50 [7, 18]: 33 µM
IC50 [7, 17]: 33 µM
IC50 [8, 19]: 190 µM
